Reference: ChEMBL document CHEMBL4837230, “Thiophene-2-carboxamide derivatives of anthraquinone: A new potent antitumor chemotype” (Eur J Med Chem, 2021)
pIC50: −log10 of the molar value. Activity calls are given as the source filed them. No cut-off for these calls is given here.

Assays:
K562 [1] = assay: Cytotoxicity against human K562 cells in presence of NAC; assay type: functional, cell-based
K562 [2] = assay: Cytotoxicity in human K562 cells assessed as reduction in cell viability at 2.5 uM incubated with compound for 120 mins followed by cell washing and measured after 72 hrs by propidium iodide staining based flow cytometric analysis; assay type: functional; settings: 2 h
K562 [3] = assay: Cytotoxicity in human K562 cells assessed as reduction in cell viability at 0.5 uM incubated with compound for 120 mins followed by cell washing and measured after 72 hrs by propidium iodide staining based flow cytometric analysis; assay type: functional; settings: 2 h
[4] = Resistance index, ratio of IC50 for cytotoxicity against human K562/4 cells to IC50 for cytotoxicity against human K562 cells; assay type: functional
NCI-H460 = assay: Cytotoxicity in human NCI-H460 cells assessed as reduction in cell viability incubated for 72 hrs by MTT assay; assay type: functional, cell-based; settings: NCI-H460, 72 h
K562 [5] = assay: Induction of cell cycle arrest in human K562 cells assessed as increase in accumulation at G2/M phase at 2.5 uM after 4 hrs by flow cytometric analysis (reference value: 19.7%); assay type: functional
K562 [6] = assay: Induction of cell cycle arrest in human K562 cells assessed as increase in accumulation at sub-G1 phase at 2.5 uM after 6 hrs by flow cytometric analysis (reference value: 22.1%); assay type: functional
K562 [7] = assay: Induction of cell cycle arrest in human K562 cells assessed as increase in accumulation at G0/G1 phase at 2.5 uM after 4 hrs by flow cytometric analysis (reference value: 19.2%); assay type: functional
K562 [8] = assay: Induction of apoptosis in human K562 cells assessed as early apoptotic cells after 24 hrs by Annexin V-APC/PI double staining based flow cytometric analysis (reference value: 0.1%); assay type: functional
K562 [9] = assay: Induction of cell cycle arrest in human K562 cells assessed as increase in accumulation at sub-G1 phase at 5 uM after 48 hrs by propidium iodide staining based flow cytometric analysis (reference value: 8.4%); assay type: functional
K562 [10] = assay: Cytotoxicity in human K562 cells assessed as reduction in cell viability at 2.5 uM incubated with compound for 30 mins followed by cell washing and measured after 72 hrs by propidium iodide staining based flow cytometric analysis; assay type: functional; settings: 0.5 h
HCT-116 [11] = assay: Cytotoxicity against p53 knock out human HCT-116 cells assessed as reduction in cell viability incubated for 72 hrs by MTT assay; assay type: functional, cell-based; settings: HCT-116, 72 h
K562 [12] = assay: Induction of mitochondrial membrane potential loss in human K562 cells at 2.5 uM after 3 hrs by Mitotracker Red dye based flow cytometric analysis(reference value: 7.8 %); assay type: functional
K562 [13] = assay: Cytotoxicity in human K562 cells assessed as reduction in cell viability incubated for 72 hrs by MTT assay; assay type: functional, cell-based; settings: K562, 72 h
HL-60 = assay: Cytotoxicity in human HL-60 cells assessed as reduction in cell viability incubated for 72 hrs by MTT assay; assay type: functional, cell-based; settings: HL-60, 72 h
K562 [14] = assay: Induction of cell cycle arrest in human K562 cells assessed as increase in accumulation at S phase at 2.5 uM by flow cytometric analysis (reference value: 11.2%); assay type: functional
K562 [15] = assay: Induction of cell cycle arrest in human K562 cells assessed as increase in accumulation at sub-G1 phase at 0.5 uM after 24 hrs by propidium iodide staining based flow cytometric analysis (reference value: 8.4%); assay type: functional
Fibroblast = assay: Cytotoxicity in human Fibroblast cells assessed as reduction in cell viability incubated for 72 hrs by MTT assay; assay type: functional, cell-based
K562 [16] = assay: Cytotoxicity in human K562 cells assessed as reduction in cell viability at 1 uM incubated with compound for 60 mins followed by cell washing and measured after 72 hrs by propidium iodide staining based flow cytometric analysis; assay type: functional
K562 [17] = assay: Induction of ROS generation in human K562 cells at 2.5 uM after 15 to 75 mins by Deep Red dye based flow cytometry method; assay type: functional, cell-based; settings: time 15-75 min
[18] = Drug localization in mitochondria of mouse NIH3T3 cells at 1 uM measured after 5 mins by MitoTracker red based confocal microscopic method; assay type: ADME; settings: nih3t3, 5 min
DNA = assay: Binding affinity to pBR322 DNA (unknown origin) at 20 uM after 30 mins by electrophoretic mobility shift assay; assay type: nucleic-acid assay
CAPAN-1 = assay: Cytotoxicity in human CAPAN-1 cells assessed as reduction in cell viability incubated for 72 hrs by MTT assay; assay type: functional, cell-based; settings: CAPAN-1, 72 h
K562 [19] = assay: Induction of cell cycle arrest in human K562 cells assessed as increase in accumulation at sub-G1 phase at 2.5 uM after 2 hrs by flow cytometric analysis (reference value: 15.2%); assay type: functional
K562 [20] = assay: Induction of apoptosis in human K562 cells assessed as activation of casapse-3 cleavage at 2.5 uM measured after 6 hrs by Western blot analysis; assay type: functional, cell-based
K562 [21] = assay: Induction of cell cycle arrest in human K562 cells assessed as increase in accumulation at S phase at 2.5 uM after 6 hrs by flow cytometric analysis (reference value: 37%); assay type: functional
K562 [22] = assay: Induction of cell cycle arrest in human K562 cells assessed as increase in accumulation at G0/G1 phase at 2.5 uM after 2 hrs by flow cytometric analysis (reference value: 46.5%); assay type: functional
K562 [23] = assay: Cytotoxicity in human K562 cells assessed as reduction in cell viability at 0.5 uM incubated for 72 hrs by propidium iodide staining based flow cytometric analysis; assay type: functional
[24] = Resistance index, ratio of IC50 for cytotoxicity against p53 knock out human HCT-116 cells to IC50 for cytotoxicity against human HCT-116 cells; assay type: functional
K562 [25] = assay: Cytotoxicity in human K562 cells assessed as reduction in cell viability at 1 uM incubated for 72 hrs by propidium iodide staining based flow cytometric analysis; assay type: functional
HCT-116 [26] = assay: Cytotoxicity in human HCT-116 cells assessed as reduction in cell viability incubated for 72 hrs by MTT assay; assay type: functional, cell-based; settings: HCT-116, 72 h
K562 [27] = assay: Induction of apoptosis in human K562 cells assessed as necrotic cells after 3 hrs by Annexin V-APC/PI double staining based flow cytometric analysis (reference value: 6.3%); assay type: functional
K562 [28] = assay: Induction of cell cycle arrest in human K562 cells assessed as increase in accumulation at S phase at 2.5 uM after 2 hrs by flow cytometric analysis (reference value: 23.1%); assay type: functional
K562 [29] = assay: Induction of mitochondrial membrane potential loss in human K562 cells at 2.5 uM after 6 hrs by Mitotracker Red dye based flow cytometric analysis(reference value: 6.4 %); assay type: functional
K562 [30] = assay: Induction of cell cycle arrest in human K562 cells assessed as increase in accumulation at G2/M phase at 2.5 uM by flow cytometric analysis (reference value: 11.8%); assay type: functional
K562 [31] = assay: Induction of apoptosis in human K562 cells assessed as early apoptotic cells after 3 hrs by Annexin V-APC/PI double staining based flow cytometric analysis (reference value: 0.1%); assay type: functional

Drug uptake [18]: Not Active
Activity (DNA): inactive
Structure (SMILES): N[C@H]1CCN(C(=O)c2cc3c(O)c4c(c(O)c3s2)C(=O)c2ccccc2C4=O)C1
Activity (K562 [1]): Active
Activity (K562 [2]): 76.5%
Activity (K562 [3]): 8.7%
Ratio [4]: 1.3
pIC50 (NCI-H460): 6.40
Activity (K562 [5]): 17.3%
Activity (K562 [6]): 24.6%
Activity (K562 [7]): 28.1%
Activity (K562 [8]): 0.1%
Activity (K562 [9]): 89.7%
Activity (K562 [10]): 67.4%
pIC50 (HCT-116 [11]): 6.30
Activity (K562 [12]): 19.8%
pIC50 (K562 [13]): 6.52
pIC50 (HL-60): 6.52
Activity (K562 [14]): 12%
Activity (K562 [15]): 18.7%
pIC50 (Fibroblast): 5.85
Activity (K562 [16]): 6.3%
Activity (K562 [17]): inactive
pIC50 (CAPAN-1): 6.15
Activity (K562 [19]): 15.9%
Activity (K562 [20]): Active
Activity (K562 [21]): 29.8%
Activity (K562 [22]): 40.4%
Activity (K562 [23]): 77.6%
Ratio [24]: 1
Activity (K562 [25]): 79.9%
pIC50 (HCT-116 [26]): 6.30
Activity (K562 [27]): 38.2%
Activity (K562 [28]): 27.8%
Activity (K562 [29]): 33.3%
Activity (K562 [30]): 14%
Activity (K562 [31]): 0.6%
